In patent US7022725B2, “Isoxazole derivatives” (Takeda Pharmaceutical Company Limited, priority 2000, dated 2006) one finds melting point data, which are given here for 52 molecules.

Usually melting point stands for the temperature of the solid-liquid transition. Turning to `Cc1noc(-c2ccccc2)c1CCC(N)=O` [Example 28, 3-(3-methyl-5-phenyl-4-isoxazolyl)propionamide], the melting point was 149 to 151 °C.
In the case of `COC(=O)CCc1cnoc1-c1ccc(Cl)s1` [Example 65, methyl 3-[5-(5-chloro-2-thienyl)-4-isoxazolyl]propionate] it was 34 to 35 °C.
`O=C(O)CCc1c(-c2ccccc2)noc1-c1ccccc1` [Example 146, 3-[3,5-diphenyl-4-isoxazolyl]propionic acid]: the melting point was in the range of 152 to 153 °C.
Regarding `CSc1ccc(-c2oncc2CCC(=O)O)cc1` [Example 103, 3-[5-(4-methylthiophenyl)-4-isoxazolyl]propionic acid], the melting point is 124 to 125 °C.
For `Cc1cc(-c2oncc2CCCO)ccc1Cl` [Example 97, 3-[5-(4-chloro-3-methylphenyl)-4-isoxazolyl]propan-1-ol] the value was 50 to 51 °C; for `O=C(O)CCc1conc1-c1ccc(Cl)cc1` [Example 5, 3-[3-(4-chlorophenyl)-4-isoxazolyl]propionic acid], 149 to 150 °C.
`O=C(O)CCc1cnoc1-c1cc(Cl)cc(Cl)c1` [Example 74, 3-[5-(3,5-dichlorophenyl)-4-isoxazolyl]propionic acid] displayed a melting point of 143 to 144 °C.
For `O=C(O)CCc1conc1-c1ccc(Cl)c(F)c1` [Example 117, 3-[3-(4-chloro-3-fluorophenyl)-4-isoxazolyl]propionic acid] the value was 148 to 149 °C.
In turn, `O=C(O)CCc1conc1-c1ccc(F)c(Cl)c1` [Example 114, 3-[3-(3-chloro-4-fluorophenyl)-4-isoxazolyl]propionic acid] displayed a melting point of 140 to 141 °C.
`O=C(O)CCc1cnoc1-c1ccc(-c2ccccc2)cc1` [Example 131, 3-[5-(4-phenylphenyl)-4-isoxazolyl]propionic acid] yielded a melting point of 94 to 95 °C.
For `O=C(O)CCc1cnoc1-c1ccc(OC(F)(F)F)cc1` [Example 1, 3-[5-(4-trifluoromethoxyphenyl)-4-isoxazolyl]propionic acid] the value was 116 to 118 °C; for `O=C(O)CCc1cnoc1-c1ccccc1` [Example 7, 3-(5-phenyl-4-isoxazolyl)propionic acid], 90 to 91 °C.
In the case of `COc1ccc(-c2oncc2CCC(=O)O)cc1OC` [Example 100, 3-[5-(3,4-dimethoxyphenyl)-4-isoxazolyl]propionic acid] it was 169 to 170 °C; in that of `O=C(O)/C=C/c1cnoc1-c1ccccc1` [Example 24, (E)-3-(5-phenyl-4-isoxazolyl)propenoic acid], 197 to 199 °C.
With `O=C(O)CCc1cnoc1-c1ccc(F)c(Br)c1` [Example 128, 3-[5-(3-bromo-4-fluorophenyl)-4-isoxazolyl]propionic acid], the melting point fell in the range of 136 to 137 °C.
Take `C[S+]([O-])c1ccc(-c2oncc2CCCO)cc1` (stereo not shown) [Example 107, 3-[5-(4-methylsulfinylphenyl)-4-isoxazolyl]propan-1-ol]: the melting point fell in the range of 73 to 74 °C.
In the case of `O=C(O)CCc1conc1-c1ccc(Cl)c(Cl)c1` [Example 111, 3-[3-(3,4-dichlorophenyl)-4-isoxazolyl]propionic acid] it was 181 to 182 °C.
For `NC(=O)CCc1conc1-c1ccc(Cl)cc1` [Example 18, 3-[3-(4-chlorophenyl)-4-isoxazolyl]propionamide] the value was 158 to 159 °C; for `OCCCc1cnoc1-c1ccc(C(F)(F)F)cc1` [Example 62, 3-[5-(4-trifluoromethylphenyl)-4-isoxazolyl]propan-1-ol], 85 to 86 °C; for `O=C(O)CCc1cnoc1-c1cccc(Cl)c1` [Example 86, 3-[5-(3-chlorophenyl)-4-isoxazolyl]propionic acid], 110 to 111 °C.
In turn, `O=C(CCc1cnoc1-c1ccccc1)Nc1ccc(CP(=O)(O)O)cc1` [Example 413 (byproduct), 3-(5-Phenyl-4-isoxazolyl)-N-[4-(phosphonomethyl)phenyl]propionamide] returned a melting point of 162 to 164 °C.
In the case of `CCNC(=O)CCc1cnoc1-c1ccccc1` [Example 23, N-ethyl-3-(5-phenyl-4-isoxazolyl)propionamide] it was 75 to 76 °C; in that of `O=C(O)CCc1cnoc1-c1ccc(F)cc1F` [Example 59, 3-[5-(2,4-difluorophenyl)-4-isoxazolyl]propionic acid], 125 to 126 °C; in that of `Cc1onc(-c2ccc(C(F)(F)F)cc2)c1CCC(=O)O` [Example 144, 3-[5-methyl-3-(4-trifluoromethylphenyl)-4-isoxazolyl]propionic acid], 138 to 139 °C.
For `COC(=O)CCc1cnoc1-c1ccc(C(F)(F)F)cc1` [Example 60, methyl 3-[5-(4-trifluoromethylphenyl)-4-isoxazolyl]propionate] the value was 68 to 69 °C; for `Cc1onc(-c2ccc(Cl)cc2)c1CCC(=O)O` [Example 141, 3-[3-(4-chlorophenyl)-5-methyl-4-isoxazolyl]propionic acid], 187 to 188 °C; for `O=C(O)CCc1cnoc1-c1cc(Cl)ccc1Cl` [Example 98, 3-[5-(2,5-dichlorophenyl)-4-isoxazolyl]propionic acid], 103 to 104 °C.
Turning to `O=C(O)CCc1cnoc1-c1ccc(Cl)c(F)c1` [Example 108, 3-[5-(4-chloro-3-fluorophenyl)-4-isoxazolyl]propionic acid], the melting point fell in the range of 139 to 140 °C.
For `CCc1onc(-c2ccc(Cl)cc2)c1CCC(=O)O` [Example 142, 3-[3-(4-chlorophenyl)-5-ethyl-4-isoxazolyl]propionic acid] the value was 164 to 165 °C.
In the case of `COc1ccc(-c2oncc2CCC(=O)O)cc1` [Example 13, 3-[5-(4-methoxyphenyl)-4-isoxazolyl]propionic acid] it was 101 to 102 °C; in that of `O=C(O)CCc1conc1-c1ccc(C(F)(F)F)cc1` [Example 140, 3-[3-(4-trifluoromethylphenyl)-4-isoxazolyl]propionic acid], 173 to 174 °C.
Molecule `NC(=O)CCc1cnoc1-c1ccccc1` [Example 22, 3-(5-phenyl-4-isoxazolyl)propionamide] displayed a melting point of 151 to 152 °C.
For `Cc1onc(-c2ccccc2Cl)c1CCC(=O)O` [Example 147, 3-[3-(2-chlorophenyl)-5-methyl-4-isoxazolyl]propionic acid] the value was 79 to 81 °C; for `NC(=O)/C=C/c1cnoc1-c1ccccc1` [Example 25, (E)-3-(5-phenyl-4-isoxazolyl)propenamide], 194 to 196 °C.
In the case of `O=C(O)CCc1cnoc1-c1ccc2c(c1)OCO2` [Example 89, 3-[5-(1,3-benzodioxol-5-yl)-4-isoxazolyl]propionic acid] it was 150 to 151 °C; in that of `COC(=O)CCc1cnoc1-c1cc(Cl)c(Cl)s1` [Example 124, methyl 3-[5-(4,5-dichloro-2-thienyl)-4-isoxazolyl]propionate], 49 to 50 °C.
Take `O=C(O)CCc1conc1-c1ccc(F)c(Br)c1` [Example 125, 3-[3-(3-bromo-4-fluorophenyl)-4-isoxazolyl]propionic acid]: the melting point lay within 151 to 152 °C.
Take `O=C(O)CCc1cnoc1-c1ccc(F)cc1` [Example 11, 3-[5-(4-fluorophenyl)-4-isoxazolyl]propionic acid]: the melting point was in the range of 126 to 127 °C.
In the case of `Cc1ccc(-c2oncc2CCC(=O)O)cc1` [Example 12, 3-[5-(4-methylphenyl)-4-isoxazolyl]propionic acid], the melting point fell in the range of 121 to 122 °C.
For `O=C(O)CCc1c(-c2ccccc2)noc1O` [Example 143, 3-[5-hydroxy-3-phenyl-4-isoxazolyl]propionic acid] the value was 183 to 184 °C; for `CCOP(=O)(O)Cc1ccc(NC(=O)CCc2cnoc2-c2ccccc2)cc1`, 80 to 82 °C.
The molecule `Cc1cc(-c2oncc2CCC(=O)O)ccc1Cl` [Example 95, 3-[5-(4-chloro-3-methylphenyl)-4-isoxazolyl]propionic acid] showed a melting point of 158 to 159 °C.
For `COC(=O)CCc1cnoc1-c1ccc(F)cc1F` [Example 61, methyl 3-[5-(2,4-difluorophenyl)-4-isoxazolyl]propionate] the value was 40 to 41 °C; for `CCNC(=O)/C=C/c1cnoc1-c1ccccc1` [Example 27, (E)-N-ethyl-3-(5-phenyl-4-isoxazolyl)propenamide], 156 to 157 °C; for `O=C(O)CCc1cnoc1-c1ccc([N+](=O)[O-])cc1` [Example 80, 3-[5-(4-nitrophenyl)-4-isoxazolyl]propionic acid], 204 to 205 °C.
In the case of `O=C(O)CCc1cnoc1-c1ccc(C(F)(F)F)cc1` [Example 10, 3-[5-(4-trifluoromethylphenyl)-4-isoxazolyl]propionic acid] it was 171 to 172 °C.
For the molecule `O=C(O)CCc1cnoc1-c1ccc(Cl)cc1Cl` [Example 69, 3-[5-(2,4-dichlorophenyl)-4-isoxazolyl]propionic acid], the melting point lay within 106 to 107 °C.
In the case of `CCOP(=O)(Cc1ccc(NC(=O)CCc2cnoc2-c2ccc(F)cc2)cc1)OCC` it was 134 to 135 °C.
Turning to `Cc1onc(-c2cccc(C(F)(F)F)c2)c1CCC(=O)O` [Example 145, 3-[5-methyl-3-(3-trifluoromethylphenyl)-4-isoxazolyl]propionic acid], the melting point is 63 to 64 °C.
For `O=C(O)CCc1conc1-c1ccc(-c2ccccc2)cc1` [Example 57, 3-[3-(4-phenylphenyl)-4-isoxazolyl]propionic acid] the value was 169 to 170 °C; for `CS(=O)(=O)c1ccc(-c2oncc2CCCO)cc1` [Example 106, 3-[5-(4-methylsulfonylphenyl)-4-isoxazolyl]propan-1-ol], 125 to 126 °C; for `CSc1ccc(-c2oncc2CCCO)cc1` [Example 105, 3-[5-(4-methylthiophenyl)-4-isoxazolyl]propan-1-ol], 54 to 55 °C.
